pIC50: −log10 of the molar value. Calls of active or inactive are those of the source. No cut-off for these calls is given here.
What was measured:
[1] = tested on: NCI-H1975; assay: cells; format: functional, cell-based; conditions: Homo sapiens, NCI-H1975, 24 h
Description: Antiproliferative activity against human NCI-H1975 cells assessed as inhibition of cell growth incubated for 24 hrs by CCK-8 assay

[2] = tested on: NCI-H1299; assay: cells; format: functional, cell-based; conditions: Homo sapiens, NCI-H1299, 24 h
Description: Antiproliferative activity against human NCI-H1299 cells assessed as inhibition of cell growth incubated for 24 hrs by CCK-8 assay

[3] = tested on: A549; assay: cells; format: functional, cell-based; conditions: Homo sapiens, A549, 24 h
Description: Antiproliferative activity against human A549 cells assessed as inhibition of cell growth incubated for 24 hrs by CCK-8 assay

[4] = tested on: HCC827; assay: cells; format: functional, cell-based; conditions: Homo sapiens, HCC827, 24 h
Description: Antiproliferative activity against human HCC827 cells assessed as inhibition of cell growth incubated for 24 hrs by CCK-8 assay

[5] = in vitro; conditions: human, HEK293T cells
Description: Cytotoxicity against HEK293T cells assessed as inhibition of cell growth incubated for 24 hrs by CCK-8 assay

[6] = tested on: NCI-H1299; assay: Synergistic induction of oxidative phosphorylation in human NCI-H1299 cells assessed as increase in ATP production in presence of ML265 by luminescence based assay; format: functional, cell-based
[7] = tested on: NCI-H1299; assay: Synergistic inhibition of NADPH production in human NCI-H1299 cells incubated for 2 hrs in presence of ML265 by NADP+/NADPH assay; format: functional, cell-based
[8] = tested on: NCI-H1299; assay: Synergistic antiproliferative activity against human NCI-H1299 cells assessed as cell growth inhibition at 500 micromol/L incubated for 24 hrs in presence of ML265 by CCK-8 analysis; format: functional, cell-based; conditions: dose 500.0 µmol/L
[9] = tested on: NCI-H1299; assay: Induction of apoptosis in human NCI-H1299 cells assessed as early apoptotic cells at 500 micromol/L incubated for 24 hrs in presence of ML265 by Annexin V-FITC/PI staining based analysis (reference value: 0.772%); format: functional; conditions: dose 500 µmol/L, at 500 µM
[10] = tested on: NCI-H1299; assay: Induction of apoptosis in human NCI-H1299 cells assessed as late apoptotic cells at 500 micromol/L incubated for 24 hrs in presence of ML265 by Annexin V-FITC/PI staining based analysis (reference value: 2.63%); format: functional; conditions: dose 500 µmol/L, at 500 µM
[11] = tested on: NCI-H1299; assay: Antitumor activity against human NCI-H1299 cells xenografted in mouse assessed as pathological damage to tumor tissue administered in presence of ML265; format: functional
[12] = tested on: NCI-H1299; assay: Induction of apoptosis in human NCI-H1299 cells assessed as dead cells at 500 micromol/L incubated for 24 hrs in presence of ML265 by Annexin V-FITC/PI staining based analysis (reference value: 0.021%); format: functional; conditions: dose 500 µmol/L, at 500 µM
[13] = tested on: NCI-H1299; assay: Induction of apoptosis in human NCI-H1299 cells assessed as late apoptotic cells at 500 micromol/L incubated for 24 hrs by Annexin V-FITC/PI staining based analysis (reference value: 2.63%); format: functional; conditions: dose 500 µmol/L, at 500 µM
[14] = tested on: NCI-H1299; assay: Induction of apoptosis in human NCI-H1299 cells assessed as live cells at 500 micromol/L incubated for 24 hrs in presence of ML265 by Annexin V-FITC/PI staining based analysis (reference value: 96.6%); format: functional; conditions: dose 500 µmol/L, at 500 µM
[15] = tested on: NCI-H1299; assay: Induction of apoptosis in human NCI-H1299 cells assessed as live cells at 500 micromol/L incubated for 24 hrs by Annexin V-FITC/PI staining based analysis (reference value: 96.6%); format: functional; conditions: dose 500 µmol/L, at 500 µM
[16] = tested on: NCI-H1299; assay: Inhibition of glycolysis in human NCI-H1299 cells assessed as reduction in glucose consumption incubated for 24 hrs in presence of ML265 by colorimetric assay; format: functional, cell-based
[17] = tested on: NCI-H1299; assay: Induction of apoptosis in human NCI-H1299 cells assessed as dead cells at 500 micromol/L incubated for 24 hrs by Annexin V-FITC/PI staining based analysis (reference value: 0.021%); format: functional; conditions: dose 500 µmol/L, at 500 µM
[18] = tested on: NCI-H1299; assay: Induction of apoptosis in human NCI-H1299 cells assessed as early apoptotic cells at 500 micromol/L incubated for 24 hrs by Annexin V-FITC/PI staining based analysis (reference value: 0.772%); format: functional; conditions: dose 500 µmol/L, at 500 µM
[19] = tested on: NCI-H1299; assay: Inhibition of glycolysis in human NCI-H1299 cells assessed as reduction in lactate production incubated for 1 hrs in presence of ML265 by colorimetric assay; format: functional, cell-based
[20] = tested on: NCI-H1299; assay: Induction of apoptosis in human NCI-H1299 cells assessed as early apoptotic cells at 2 micromol/L incubated for 24 hrs by Annexin V-FITC/PI staining based analysis (reference value: 2.43%); format: functional; conditions: dose 2 µmol/L, at 2 µM
[21] = tested on: NCI-H1975; assay: Induction of apoptosis in human NCI-H1975 cells assessed as late apoptotic cells at 2 micromol/L incubated for 24 hrs by Annexin V-FITC/PI staining based analysis (reference value: 2.66%); format: functional; conditions: dose 2 µmol/L, at 2 µM
[22] = tested on: A549; assay: Induction of apoptosis in human A549 cells assessed as early apoptotic cells at 2 micromol/L incubated for 24 hrs by Annexin V-FITC/PI staining based analysis (reference value: […]%); format: functional; conditions: dose 2 µmol/L
[23] = tested on: NCI-H1975; assay: Induction of mitochondrial transmembrane potential dissipation in human NCI-H1975 cells assessed as cells with low mitochondrial transmembrane potential at 1 micromol/L by FL-1/FL-2 channel based fluorescence analysis (reference value: 2.13%); format: functional; conditions: dose 1 µmol/L; at 1 µM
[24] = tested on: NCI-H1975; assay: Induction of apoptosis in human NCI-H1975 cells assessed as early apoptotic cells at 2 micromol/L incubated for 24 hrs by Annexin V-FITC/PI staining based analysis (reference value: 1.88%); format: functional; conditions: dose 2 µmol/L, at 2 µM
[25] = tested on: NCI-H1975; assay: Induction of mitochondrial transmembrane potential dissipation in human NCI-H1975 cells assessed as cells with high mitochondrial transmembrane potential at 1 micromol/L by FL-1/FL-2 channel based fluorescence analysis (reference value: 97.4%); format: functional; conditions: dose 1 µmol/L; at 1 µM
[26] = tested on: A549; assay: Induction of apoptosis in human A549 cells assessed as late apoptotic cells at 2 micromol/L incubated for 24 hrs by Annexin V-FITC/PI staining based analysis (reference value: 3.18%); format: functional; conditions: dose 2 µmol/L, at 2 µM
[27] = tested on: NCI-H1299; assay: Induction of apoptosis in human NCI-H1299 cells assessed as late apoptotic cells at 2 micromol/L incubated for 24 hrs by Annexin V-FITC/PI staining based analysis (reference value: 14.9%); format: functional; conditions: dose 2 µmol/L, at 2 µM
[28] = tested on: HCC827; assay: Induction of apoptosis in human HCC827 cells assessed as late apoptotic cells at 2 micromol/L incubated for 24 hrs by Annexin V-FITC/PI staining based analysis (reference value: 8.42%); format: functional; conditions: dose 2 µmol/L, at 2 µM
[29] = tested on: HCC827; assay: Induction of apoptosis in human HCC827 cells assessed as early apoptotic cells at 2 micromol/L incubated for 24 hrs by Annexin V-FITC/PI staining based analysis (reference value: 9.14%); format: functional; conditions: dose 2 µmol/L, at 2 µM
[30] = tested on: NCI-H1975; assay: Induction of apoptosis in human NCI-H1975 cells assessed as dead cells at 10 micromol/L incubated for 24 hrs by Annexin V-FITC/PI staining based analysis (reference value: 0.103%); format: functional; conditions: dose 10 µmol/L, at 10 µM
[31] = tested on: NCI-H1975; assay: Induction of apoptosis in human NCI-H1975 cells assessed as early apoptotic cells at 10 micromol/L incubated for 24 hrs by Annexin V-FITC/PI staining based analysis (reference value: 2.55%); format: functional; conditions: dose 10 µmol/L, at 10 µM
[32] = tested on: NCI-H1975; assay: Induction of apoptosis in human NCI-H1975 cells assessed as live cells at 10 micromol/L incubated for 24 hrs by Annexin V-FITC/PI staining based analysis (reference value: 88.7%); format: functional; conditions: dose 10 µmol/L, at 10 µM

| SMILES | pIC50 [1] | pIC50 [2] | pIC50 [3] | pIC50 [4] | IC50 at 24 h [5] [µM] | also measured |
| --- | --- | --- | --- | --- | --- | --- |
| COC(=O)[C@H](CS[C@H](CC=C(C)C)C1=CC(=O)c2c(O)ccc(O)c2C1=O)NC(=O)CCCC[C@@H]1CCSC(C2CCCCC2)S1 (some centres not stated) | 4.87 | 4.94 | 4.74 | 4.94 | 86.1 |  |
| COC(=O)[C@H](CS[C@H](CC=C(C)C)C1=CC(=O)c2c(O)ccc(O)c2C1=O)NC(=O)CCCC[C@@H]1CCSC(c2ccc(OCc3ccccc3)cc2)S1 (some centres not stated) | 4.81 | 4.61 | 4.88 | 4.71 | 88.7 |  |
| COC(=O)[C@H](CS[C@H](CC=C(C)C)C1=CC(=O)c2c(O)ccc(O)c2C1=O)NC(=O)CCCC[C@@H]1CCSC(c2ccc([N+](=O)[O-])cc2)S1 (some centres not stated) | 4.77 | 5.27 | 4.66 | 4.59 | 94.2 |  |
| CN(C)C(=O)c1ccc(S(=O)(=O)c2ccc(NC(=O)[C@@](C)(O)C(F)(F)F)c(Cl)c2)cc1 |  |  |  |  |  | Activity [6]: Active; inhibition [7]: Active; Activity [8]: Active; Activity [9]: 7.63%; Activity [10]: 71.7%; Activity [11]: Active; Activity [12]: 0%; Activity [13]: 12.1%; Activity [14]: 20.6%; Activity [15]: 59%; inhibition [16]: Active; Activity [17]: 0.01%; Activity [18]: 28.9%; inhibition [19]: Active |
| COC(=O)[C@H](CS[C@H](CC=C(C)C)C1=CC(=O)c2c(O)ccc(O)c2C1=O)NC(=O)CCCC[C@@H]1CCSC(c2ccccc2Cl)S1 (some centres not stated) | 5.08 | 5.17 | 5.02 | 5.08 | 84.5 |  |
| COC(=O)[C@H](CS[C@H](CC=C(C)C)C1=CC(=O)c2c(O)ccc(O)c2C1=O)NC(=O)CCCC[C@@H]1CCSC(c2ccccc2)S1 (some centres not stated) | 4.94 | 5.20 | 5.07 | 5.22 | 95.5 |  |
| COc1cc2ncnc(Nc3ccc(F)c(Cl)c3)c2cc1OCCCN1CCOCC1 [GEFITINIB] |  |  |  |  |  | Activity [30]: 0%; Activity [31]: 1.45%; Activity [32]: 89% |

Further compounds by rising pIC50 [1], results first:

| pIC50 [1] | pIC50 [2] | pIC50 [3] | pIC50 [4] | IC50 at 24 h [5] [µM] | SMILES | also measured |
| --- | --- | --- | --- | --- | --- | --- |
| 5.08 | 5.08 | 4.94 | 4.96 | 86 | COC(=O)[C@H](CS[C@H](CC=C(C)C)C1=CC(=O)c2c(O)ccc(O)c2C1=O)NC(=O)CCCC[C@@H]1CCSC(c2ccc(Cl)cc2)S1 (some centres not stated) |  |
| 5.13 | 5.45 | 4.82 | 4.93 | 96.7 | COC(=O)[C@H](CS[C@H](CC=C(C)C)C1=CC(=O)c2c(O)ccc(O)c2C1=O)NC(=O)CCCC[C@@H]1CCSC(c2cccc(Br)c2)S1 (some centres not stated) |  |
| 5.33 | 5.49 | 4.74 | 4.88 | 88.8 | COC(=O)[C@H](CS[C@H](CC=C(C)C)C1=CC(=O)c2c(O)ccc(O)c2C1=O)NC(=O)CCCC[C@@H]1CCSC(c2ccc(Br)cc2)S1 (some centres not stated) |  |
| 5.34 | 5.40 | 5.35 | 5.04 | 2.63 | CC(C)=CC[C@@H](O)C1=CC(=O)c2c(O)ccc(O)c2C1=O [SHIKONIN] | Activity [20]: 4.34%; Activity [21]: 9.96%; Activity [22]: 10.7%; Activity [23]: 8.69%; Activity [24]: 8.91%; Activity [25]: 91.3%; Activity [26]: 4.66%; Activity [27]: 17.2%; Activity [28]: 22.1%; Activity [29]: 27.5% |
| 5.39 | 4.98 | 4.91 | 4.98 | 80.4 | COC(=O)[C@H](CS[C@H](CC=C(C)C)C1=CC(=O)c2c(O)ccc(O)c2C1=O)NC(=O)CCCC[C@@H]1CCSC(c2ccc(C)cc2)S1 (some centres not stated) |  |
| 5.39 | 5.31 | 5.38 | 5.38 | 77.5 | COC(=O)[C@H](CS[C@H](CC=C(C)C)C1=CC(=O)c2c(O)ccc(O)c2C1=O)NC(=O)CCCC[C@@H]1CCSC(c2ccc(C(C)C)cc2)S1 (some centres not stated) |  |
| 5.44 | 5.45 | 5.34 | 5.36 | 83.8 | COC(=O)[C@H](CS[C@H](CC=C(C)C)C1=CC(=O)c2c(O)ccc(O)c2C1=O)NC(=O)CCCC[C@@H]1CCSC(c2cccc(C(F)(F)F)c2)S1 (some centres not stated) |  |
| 5.57 | 5.55 | 5.63 | 5.19 | 86.2 | COC(=O)[C@H](CS[C@H](CC=C(C)C)C1=CC(=O)c2c(O)ccc(O)c2C1=O)NC(=O)CCCC[C@@H]1CCSC(c2ccc(OC)cc2)S1 (some centres not stated) |  |
| 5.63 | 5.34 | 5.19 | 5.15 | 84.9 | COC(=O)[C@H](CS[C@H](CC=C(C)C)C1=CC(=O)c2c(O)ccc(O)c2C1=O)NC(=O)CCCC[C@@H]1CCSC(c2ccc(C(F)(F)F)cc2)S1 (some centres not stated) |  |
| 5.77 | 5.35 | 4.79 | 4.78 | 98.2 | COC(=O)[C@H](CS[C@H](CC=C(C)C)C1=CC(=O)c2c(O)ccc(O)c2C1=O)NC(=O)CCCC[C@@H]1CCSC(c2cccc(Cl)c2Cl)S1 (some centres not stated) |  |
